Source: US9302999B2, “Substituted triazoles as herbicides” (E. I. DU PONT DE NEMOURS AND COMPANY, priority 2012, dated 2016)

How the values were obtained:
Type in all cases: in vivo
[1] = system: woolly cupgrass (Eriochloa villosa); assay: Test C pre-/postemergence: woolly cupgrass
From the text: (§1) Seeds of plant species selected from blackgrass (Alopecurus myosuroides), bromegrass, downy (downy bromegrass, Bromus tectorum), foxtail, green (green foxtail, Setaria viridis), ryegrass, Italian (Italian ryegrass, Lolium multiflorum), winter wheat (Triticum aestivum), wild oat (Avena fatua), galium (catchweed bedstraw, Galium aparine), bermudagrass (Cynodon dactylon), surinam grass (Brachiaria decumbens), cocklebur (common cocklebur, Xanthium strumarium), corn (Zea mays), large crabgrass (Digitaria sanguinalis), woolly cupgrass (Eriochloa villosa), foxtail, giant (giant foxtail, Setaria faberii), goosegrass (Eleusine indica), johnsongrass (Sorghum halepense), kochia (Kochia scoparia), lambsquarters (Chenopodium album), morningglory (Ipomoea coccinea), nightshade (eastern black nightshade, Solanum ptycanthum), nutsedge, yellow (yellow nutsedge, Cyperus esculentus), pigweed (Amaranthus retroflexus), ragweed (common ragweed, Ambrosia elation), soybean (Glycine max), common (oilseed) sunflower (Helianthus annuus), Russian thistle (Salsola kali) and velvetleaf (Abutilon theophrasti) were planted into a blend of loam soil and sand and treated preemergence with test chemicals formulated in a non-phytotoxic solvent mixture which included a surfactant.
(§2) At the same time, plants selected from these crop and weed species and also barley (winter barley, Hordeum vulgare), canarygrass (Phalaris minor), chickweed (common chickweed, Stellaria media) windgrass (Apera spica-venti) and deadnettle (henbit deadnettle, Lamium amplexicaule) were planted in pots containing Redi-Earth® planting medium (Scotts Company, 14111 Scottslawn Road, Marysville, Ohio 43041) comprising spaghnum peat moss, vermiculite, wetting agent and starter nutrients and treated with postemergence applications of test chemicals formulated in the same manner. Plants ranged in height from 2 to 18 cm (1- to 4-leaf stage) for postemergence treatments.
(§3) Treated plants and controls were maintained in a greenhouse for 13 to 15 days, after which time all species were compared to controls and visually evaluated. Plant response ratings, summarized in Table C, are based on a scale of 0 to 100 where 0 is no effect and 100 is complete control. A dash (-) response means no test result.

[2] = system: goosegrass (Eleusine indica); assay: Test C pre-/postemergence: goosegrass
Outline: (§4)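 Visual injury scored 0–100 (100 = complete control) against untreated controls after 13–15 greenhouse days. Surfactant-containing solvent formulations applied either to soil after sowing (loam/sand) or over 1- to 4-leaf plants, 2–18 cm tall.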

[3] = system: deadnettle (henbit deadnettle, Lamium amplexicaule); assay: Test C postemergence: deadnettle
Outline: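 Plants at the 1- to 4-leaf stage (2 to 18 cm tall), grown in pots of peat moss/vermiculite planting medium, received postemergence applications of the formulated test chemicals. After 13 to 15 days in a greenhouse, injury was scored visually versus controls from 0 (no effect) to 100 (complete control).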

[4] = system: bermudagrass (Cynodon dactylon); assay: Test C pre-/postemergence: bermudagrass
From the text: as §1, §2, §3

[5] = system: bromegrass, downy (downy bromegrass, Bromus tectorum); assay: Test C pre-/postemergence: bromegrass, downy
Outline: as §4

[6] = system: barley (winter barley, Hordeum vulgare); assay: Test C postemergence: barley
From the text: as §2, §3

[7] = system: foxtail, green (green foxtail, Setaria viridis); assay: Test C pre-/postemergence: foxtail, green
Outline: as §4

[8] = system: windgrass (Apera spica-venti); assay: Test C postemergence: windgrass
From the text: as §2, §3

[9] = system: surinam grass (Brachiaria decumbens); assay: Test C pre-/postemergence: surinam grass
From the text: as §1, §2, §3

[10] = Postemergence, 16 g ai/ha, scale 0 to 100, 0 no effect, 100 complete control
[11] = Postemergence, 31 g ai/ha, scale 0 to 100 (0 no effect, 100 complete control)
[12] = Postemergence, 62 g ai/ha, scale 0 to 100 (0 no effect, 100 complete control)
[13] = Postemergence, 125 g ai/ha, scale 0 to 100, 0 no effect, 100 complete control
[14] = Preemergence, 16 g ai/ha, scale 0 (no effect) to 100 (complete control)
[15] = Preemergence, 31 g ai/ha, scale of 0 to 100, 0 is no effect, 100 is complete control
[16] = Preemergence, 62 g ai/ha, scale of 0 to 100, 0 is no effect, 100 is complete control
[17] = Preemergence, 125 g ai/ha, scale 0 to 100, 0 no effect, 100 complete control
[18] = 16 g ai/ha, scale 0 to 100, 0 no effect, 100 complete control
[19] = 31 g ai/ha, scale 0 to 100 (0 no effect, 100 complete control)
[20] = 62 g ai/ha, scale 0 to 100 (0 no effect, 100 complete control)
[21] = 125 g ai/ha, scale 0 to 100, 0 no effect, 100 complete control
[22] = Preemergence, 62 g ai/ha, scale 0 to 100, 0 no effect, 100 complete control
[23] = Postemergence, 250 g ai/ha, scale 0 to 100
[24] = Preemergence, 250 g ai/ha, scale 0 to 100, 0 no effect, 100 complete control

SMILES: COc1nn(-c2ccc(C(F)(F)F)cc2)nc1Cc1ccnc(C(F)(F)F)c1 [Compound 15, 4-[[5-methoxy-2-[4-(trifluoromethyl)phenyl]-2H-1,2,3-triazol-4-yl]methyl]-2-(trifluoromethyl)pyridine]
- Plant response rating, Cupgrass, Woolly [1, 10]: 5
- Plant response rating, Cupgrass, Woolly [1, 11]: 5
- Plant response rating, Cupgrass, Woolly [1, 12]: 5
- Plant response rating, Cupgrass, Woolly [1, 13]: 75
- Plant response rating, Cupgrass, Woolly [1, 14]: 5
- Plant response rating, Cupgrass, Woolly [1, 15]: 45
- Plant response rating, Cupgrass, Woolly [1, 16]: 85
- Plant response rating, Cupgrass, Woolly [1, 17]: 95
- Plant response rating, Goosegrass [2, 10]: 5
- Plant response rating, Goosegrass [2, 11]: 25
- Plant response rating, Goosegrass [2, 12]: 40
- Plant response rating, Goosegrass [2, 13]: 65
- Plant response rating, Goosegrass [2, 14]: 100
- Plant response rating, Goosegrass [2, 15]: 100
- Plant response rating, Goosegrass [2, 16]: 100
- Plant response rating, Goosegrass [2, 17]: 100
- Plant response rating, Deadnettle [3, 18]: 90
- Plant response rating, Deadnettle [3, 19]: 100
- Plant response rating, Deadnettle [3, 20]: 100
- Plant response rating, Deadnettle [3, 21]: 100
- Plant response rating, Bermudagrass [4, 10]: 5
- Plant response rating, Bermudagrass [4, 11]: 5
- Plant response rating, Bermudagrass [4, 12]: 15
- Plant response rating, Bermudagrass [4, 13]: 35
- Plant response rating, Bermudagrass [4, 14]: 100
- Plant response rating, Bermudagrass [4, 15]: 100
- Plant response rating, Bermudagrass [4, 22]: 100
- Plant response rating, Bermudagrass [4, 17]: 100
- Plant response rating, Bromegrass, Downy [5, 10]: 10
- Plant response rating, Bromegrass, Downy [5, 11]: 25
- Plant response rating, Bromegrass, Downy [5, 12]: 35
- Plant response rating, Bromegrass, Downy [5, 13]: 40
- Plant response rating, Bromegrass, Downy [5, 14]: 15
- Plant response rating, Bromegrass, Downy [5, 15]: 25
- Plant response rating, Bromegrass, Downy [5, 22]: 30
- Plant response rating, Bromegrass, Downy [5, 17]: 80
- Plant response rating, Barley [6, 18]: 30
- Plant response rating, Barley [6, 19]: 35
- Plant response rating, Barley [6, 20]: 35
- Plant response rating, Barley [6, 21]: 50
- Plant response rating, Foxtail, Green [7, 10]: 30
- Plant response rating, Foxtail, Green [7, 11]: 40
- Plant response rating, Foxtail, Green [7, 12]: 85
- Plant response rating, Foxtail, Green [7, 13]: 85
- Plant response rating, Foxtail, Green [7, 14]: 95
- Plant response rating, Foxtail, Green [7, 15]: 95
- Plant response rating, Foxtail, Green [7, 16]: 100
- Plant response rating, Foxtail, Green [7, 17]: 100
- Plant response rating, Windgrass [8, 18]: 20
- Plant response rating, Windgrass [8, 19]: 20
- Plant response rating, Windgrass [8, 20]: 85
- Plant response rating, Windgrass [8, 21]: 90
- Plant response rating, Surinam Grass [9, 10]: 5
- Plant response rating, Surinam Grass [9, 11]: 10
- Plant response rating, Surinam Grass [9, 12]: 15
- Plant response rating, Surinam Grass [9, 13]: 50
- Plant response rating, Surinam Grass [9, 14]: 10
- Plant response rating, Surinam Grass [9, 15]: 40
- Plant response rating, Surinam Grass [9, 16]: 55
- Plant response rating, Surinam Grass [9, 17]: 90

SMILES: Cc1nn(-c2ccc(C(F)(F)F)cn2)nc1Oc1ccnc(C(F)(F)F)c1 [Compound 23]
- Plant response rating, Cupgrass, Woolly [1, 11]: 10
- Plant response rating, Cupgrass, Woolly [1, 12]: 10
- Plant response rating, Cupgrass, Woolly [1, 13]: 15
- Plant response rating, Cupgrass, Woolly [1, 23]: 50
- Plant response rating, Cupgrass, Woolly [1, 15]: 95
- Plant response rating, Cupgrass, Woolly [1, 16]: 100
- Plant response rating, Cupgrass, Woolly [1, 17]: 100
- Plant response rating, Cupgrass, Woolly [1, 24]: 100
- Plant response rating, Goosegrass [2, 11]: 10
- Plant response rating, Goosegrass [2, 12]: 10
- Plant response rating, Goosegrass [2, 13]: 15
- Plant response rating, Goosegrass [2, 23]: 30
- Plant response rating, Goosegrass [2, 15]: 95
- Plant response rating, Goosegrass [2, 16]: 100
- Plant response rating, Goosegrass [2, 17]: 100
- Plant response rating, Goosegrass [2, 24]: 100
- Plant response rating, Deadnettle [3, 19]: 80
- Plant response rating, Deadnettle [3, 20]: 80
- Plant response rating, Deadnettle [3, 21]: 85
- Plant response rating, Deadnettle ([3]; 250 g ai/ha, scale 0 to 100): 98
- Plant response rating, Bermudagrass [4, 11]: 5
- Plant response rating, Bermudagrass [4, 12]: 10
- Plant response rating, Bermudagrass [4, 13]: 15
- Plant response rating, Bermudagrass [4, 23]: 30
- Plant response rating, Bermudagrass [4, 15]: 100
- Plant response rating, Bermudagrass [4, 22]: 100
- Plant response rating, Bermudagrass [4, 17]: 100
- Plant response rating, Bermudagrass [4, 24]: 100
- Plant response rating, Bromegrass, Downy [5, 11]: 5
- Plant response rating, Bromegrass, Downy [5, 12]: 5
- Plant response rating, Bromegrass, Downy [5, 13]: 5
- Plant response rating, Bromegrass, Downy [5, 23]: 5
- Plant response rating, Bromegrass, Downy [5, 15]: 0
- Plant response rating, Bromegrass, Downy [5, 22]: 0
- Plant response rating, Bromegrass, Downy [5, 17]: 5
- Plant response rating, Bromegrass, Downy [5, 24]: 10
- Plant response rating, Barley [6, 19]: 5
- Plant response rating, Barley [6, 20]: 15
- Plant response rating, Barley [6, 21]: 20
- Plant response rating, Barley ([6]; 250 g ai/ha, scale 0 to 100): 30
- Plant response rating, Foxtail, Green [7, 12]: 30
- Plant response rating, Foxtail, Green [7, 13]: 45
- Plant response rating, Foxtail, Green [7, 23]: 50
- Plant response rating, Foxtail, Green [7, 15]: 100
- Plant response rating, Foxtail, Green [7, 16]: 100
- Plant response rating, Foxtail, Green [7, 17]: 100
- Plant response rating, Foxtail, Green [7, 24]: 100
- Plant response rating, Windgrass [8, 19]: 10
- Plant response rating, Windgrass [8, 20]: 15
- Plant response rating, Windgrass [8, 21]: 15
- Plant response rating, Windgrass ([8]; 250 g ai/ha, scale 0 to 100): 15
- Plant response rating, Surinam Grass [9, 11]: 5
- Plant response rating, Surinam Grass [9, 12]: 10
- Plant response rating, Surinam Grass [9, 13]: 10
- Plant response rating, Surinam Grass [9, 23]: 15
- Plant response rating, Surinam Grass [9, 15]: 15
- Plant response rating, Surinam Grass [9, 16]: 60
- Plant response rating, Surinam Grass [9, 17]: 100
- Plant response rating, Surinam Grass [9, 24]: 100
